Where two headings read alike, the source gives them in different places.
How the values were obtained:
[1] = set-up: species or system human; details: human, in vivo
From the text: Accumulated data have shown that maribavir is metabolized primarily in the liver, and renal clearance is a minor route (representing less than 5 percent). VP 44469 (N-dealkylated Maribavir) was the principal metabolite of maribavir in both urine and feces. In plasma, unchanged maribavir and VP 44469 represented approximately 69% and 9.8% of total radioactivity, respectively. The hepatic metabolism of maribavir was primarily driven by cytochrome P450s. CYP3A4 and CYP1A2 were responsible for 70 to 85% and 15 to 30% of the CYP-driven pathways, respectively. Glucuronidation accounted for less than 20% of metabolism.
Distribution models evaluated included a full PBPK model and a minimal PBPK model, both of which consider liver and intestinal metabolism. Mass balance data from the [^14C] ADME study indicated a fraction absorbed of 0.83 or greater following oral administration of 400 mg dose of maribavir. Absorption models evaluated included a simple first-order absorption model and a more mechanistic “Advanced Dissolution Absorption and Metabolism” (ADAM) model.

[2] = clinical; details: human, in vivo; for AUC(0-t): AUC(0-12 h)
Experimental: A combination of in vitro data and clinical pharmacokinetic data obtained following a single dose of 400 mg maribavir were used to develop the PBPK model. […] The Cmax was marginally under predicted, which could be expected because the PBPK model was optimized for better prediction of C12h.
A comparison of observed and predicted plasma concentrations of maribavir following single oral doses of 800 mg and 1600 mg to healthy patients […]. […] The simulated and observed maribavir concentrations were in reasonable agreement.
A comparison of observed and predicted plasma concentrations of maribavir following multiple oral 400 mg BID doses of maribavir was performed. […] The simulated and observed maribavir concentrations were in reasonable agreement.

[3] = molecular target: CYP3A (Homo sapiens, UniProt P08684); test: Time-dependent inhibition of CYP3A in HLM (IC50 shift and enzyme inactivation kinetics); type: in vitro ADME; set-up: from tissue; host or cells: human liver microsomes; details: human liver microsomes; for kinact: read-out: kinact (maximum enzyme inactivation rate constant), TDI of CYP3A (converted)
Experimental: Time-dependent inhibition (TDI) potentials for various CYP enzymes were evaluated by a 30 minute pre-incubation of maribavir with HLM in the presence and absence of nicotinamide-adenine dinucleotide […] (NADPH) followed by a CYP enzyme activity assay.
Enzyme inactivation kinetics of maribavir for the TDI of CYP3A, with midazolam and testosterone as probe substrates, was evaluated by pre-incubation of HLM with maribavir at various concentrations with NADPH for six different pre-incubation time frames. CYP3A activity was measured by determining the formation of CYP3A probe metabolite. Inhibitor concentration at half maximal enzyme inactivation (KI), and maximum enzyme inactivation rate constant (kinact), were estimated using non-linear least-square regression.

[4] = 400 mg, observed Geometric mean

Chain of CYP3A (P08684 2-503): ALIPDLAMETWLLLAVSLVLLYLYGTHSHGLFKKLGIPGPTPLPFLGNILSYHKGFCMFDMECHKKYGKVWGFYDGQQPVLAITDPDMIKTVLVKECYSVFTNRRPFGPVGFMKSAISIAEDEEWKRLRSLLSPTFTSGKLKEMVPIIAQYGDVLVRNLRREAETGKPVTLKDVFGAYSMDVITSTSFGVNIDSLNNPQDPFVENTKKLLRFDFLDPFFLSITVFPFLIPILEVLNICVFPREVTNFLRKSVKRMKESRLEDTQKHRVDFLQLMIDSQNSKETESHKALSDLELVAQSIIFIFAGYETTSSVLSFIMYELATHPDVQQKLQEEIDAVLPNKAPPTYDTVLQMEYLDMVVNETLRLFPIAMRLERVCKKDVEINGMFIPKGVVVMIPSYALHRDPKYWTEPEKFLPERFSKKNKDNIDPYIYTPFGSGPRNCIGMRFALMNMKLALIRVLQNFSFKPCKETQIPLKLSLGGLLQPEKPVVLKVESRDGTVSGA

In the case of `CC(C)Nc1nc2cc(Cl)c(Cl)cc2n1[C@H]1O[C@@H](CO)[C@H](O)[C@@H]1O` [maribavir, (2S,3S,4R,5S)-2-(5,6-dichloro-2-(isopropylamino)-1H-benzo[d]imidazol-1-yl)-5-(hydroxymethyl)tetrahydrofuran-3,4-diol], the “contribution of CYP1A2 to the CYP-driven pathways” value [1] is reported as 15-30%, the “contribution of CYP3A4 to the CYP-driven pathways” value [1] is reported as 70-85% and the “share of metabolism by glucuronidation” value [1] is reported as “less than 20%”. For the same compound, the “share of total radioactivity in plasma” value [1] was “approximately 69%”, the “AUC(0-∞), observed Mean” value ([2]; 400 mg) was 126 mg·h/L and the AUC(0-t) ([2]; 400 mg, observed) was 86600 ng·h/mL. The AUC(0-t) ([2]; 400 mg, observed Mean) was 89900 ng·h/mL, the AUC(0-inf) [2, 4] was 119 µg·h/mL and the AUC(0-inf) ([2]; 400 mg, observed Mean) was 89.9 µg·h/mL. For the same compound, the Cmax [2, 4] was 19400 ng/mL, the Cmax ([2]; 400 mg, observed Mean) was 16900 ng/mL and the Cmax ([2]; 400 mg, observed, row headed % CV) was 16200 ng/mL. The AUC(0-inf) ([2]; po, 400 mg, observed Mean) was 97.8 µg·h/mL, the Cmax ([2]; po, 400 mg, observed Mean) was 16700 ng/mL and the AUC(0-inf) ([2]; po, 800 mg, observed Mean) was 183 µg·h/mL. It also gave a Cmax ([2]; po, 800 mg, observed Mean) of 26400 ng/mL, an AUC(0-inf) ([2]; po, 1600 mg, observed Mean) of 437 µg·h/mL and a Cmax ([2]; po, 1600 mg, observed Mean) of 48800 ng/mL. The KI (inactivation) ([3]; probe midazolam) was 41.2 µM, the kinact ([3]; probe midazolam, midazolam as substrate) was 0.000195 s⁻¹ and the KI (inactivation) ([3]; probe testosterone) was 167 µM. It also gave a kinact ([3]; probe testosterone, testosterone as substrate) of 0.000595 s⁻¹.

From patent US12447170B2, “Use of maribavir in treatment regimens” (priority 2021, dated 2025)
